The source of these data is PMC6921407, “Novel coumarins active against Trypanosoma cruzi and toxicity assessment using the animal model Caenorhabditis elegans” (BMC Pharmacology & Toxicology, 2019).

Data set [1] deals with Trypanosoma cruzi epimastigotes (Tulahuen 2 strain). The data set can be described thus: Anti-Trypanosoma cruzi activity: growth inhibition of epimastigotes (absorbance at 600 nm, day 5). It is filed as cell-based. Particulars: T. cruzi epimastigotes; for GI (%) / percentage of growth inhibition (PGI): test concentration not given. Here is the method: Trypanosoma cruzi epimastigotes (Tulahuen 2 strain) were grown at 28 °C in an axenic milieu (BHI-Tryptose) supplemented with 5% fetal bovine serum (FBS), as previously described. Cells from a 10-day-old culture (stationary phase) were inoculated into 50 mL of fresh culture milieu to give an initial concentration of 1 × 10^6 cells per mL. Cell growth was followed by measuring the absorbance of the culture at 600 nm every day. Before inoculation, the milieu was supplemented with a given amount of the coumarin from a freshly prepared stock solution in DMSO (25 mM). The final concentration of DMSO in the culture medium never exceeded 0.4%, and the control was run in the presence of 0.4% DMSO and in the absence of drugs. […] Nifurtimox (Nfx) was used as the reference trypanocidal drug. The percentage of growth inhibition (PGI) was calculated as follows: PGI (%) = {1 - [(Ap - A0p) / (Ac - A0c)]} × 100, where Ap = […] of the culture containing the studied compound at day 5; […] = […] of the culture containing the studied compound just after addition of the inocula (day 0); Ac = […] of the culture in the absence of the studied compound (control) at day 5; […] = […] in the absence of the studied compound at day 0. […] At day 5, the absorbance of the culture was measured and related to the control.

[2] abbreviates: Trypanosoma cruzi, TULAHUEN, 120 h, read-out: IC50.

Read-outs that look alike come from different tables or passages of the source.

As to `Cc1ccc2oc(=O)cc(CN3CCS(=O)(=O)CC3)c2c1` [10m], the melting point lay within 170 to 172 °C. Moreover, in data set [1], the IC50 result is on record as “Inactive” and the “GI (%) / percentage of growth inhibition (PGI)” value is recorded as “Inactive”.
Turning to `O=c1cc(CN2CCNCC2)c2cc(Cl)ccc2o1` [9j], the melting point was greater than 300 °C. Moreover, the “GI (%) / percentage of growth inhibition (PGI)” value in data set [1] is on record as less than 23.6%. Also, the IC50 in data set [1] (setting [2]) is greater than 31 µM.
For `Cc1ccc(NCc2cc(=O)oc3ccc(Cl)cc23)cc1` [9b], in that order: 201 °C, less than 20.7% and greater than 100 µM.
Consider `O=c1cc(CNc2ccc(Cl)cc2)c2cc(Cl)ccc2o1` [9c], for which the melting point lay in the range of 205 to 207 °C. In data set [1], the “GI (%) / percentage of growth inhibition (PGI)” value is less than 20.4%. The IC50 in data set [1] (setting [2]) is greater than 100 µM.
The like results for `O=c1cc(CN2CCCCC2)c2cc(Cl)ccc2o1` [9i] were, in that order, 181 to 182 °C, 15.9 ± 0.9% and greater than 100 µM.
On to `CCc1ccc2oc(=O)cc(CNc3ccccc3)c2c1` [11a], for which the melting point was in the range of 91 to 93 °C. In addition, the “GI (%) / percentage of growth inhibition (PGI)” value in data set [1] is given as 35.7 ± 0.7%. The IC50 in data set [1] (setting [2]) was determined as 27.7 ± 1.3 µM.
`Cc1ccc2oc(=O)cc(CN(C)c3ccc(Cl)cc3)c2c1` [10h] returned a melting point of 173 to 174 °C. Besides, the “GI (%) / percentage of growth inhibition (PGI)” value in data set [1] is less than 59.2%. The IC50 in data set [1] (setting [2]) was greater than 25 µM.
In the case of `CCc1ccc2oc(=O)cc(CN3CCCCC3)c2c1` [11i], the melting point fell in the range of 96 to 98 °C. Moreover, the “GI (%) / percentage of growth inhibition (PGI)” value in data set [1] is listed as less than 71.4%. For the same compound, in data set [1] (setting [2]), the IC50 is 13.9 ± 2.8 µM.
As to `CCc1ccc2oc(=O)cc(CNc3ccc(C)cc3)c2c1` [11b], the melting point fell in the range of 171 to 172 °C. Moreover, the “GI (%) / percentage of growth inhibition (PGI)” value in data set [1] was less than 39.5%. In data set [1] (setting [2]), the IC50 is greater than 25 µM.
As to `CN(Cc1cc(=O)oc2ccc(Cl)cc12)c1ccccc1` [9g], the melting point lay within 200 to 201 °C. Besides, the IC50 in data set [1] (setting [2]) was determined as 14.2 ± 1.9 µM.
Consider `CCc1ccc2oc(=O)cc(CN3CCS(=O)(=O)CC3)c2c1` [11m], for which the melting point fell in the range of 175 to 177 °C. For the same compound, the “GI (%) / percentage of growth inhibition (PGI)” value in data set [1] was less than 10.2%. Moreover, in data set [1] (setting [2]), the IC50 was greater than 100 µM.
For `COc1ccc(NCc2cc(=O)oc3ccc(C)cc23)cc1` [10e], the melting point lay in the range of 169 to 170 °C. In addition, the “GI (%) / percentage of growth inhibition (PGI)” value in data set [1] amounted to 53.2 ± 1.3%. Further, the IC50 in data set [1] (setting [2]) was greater than 25 µM.
Consider `CCc1ccc2oc(=O)cc(CNc3ccc(Cl)cc3)c2c1` [11c], for which the melting point was 171 to 173 °C. Further, the “GI (%) / percentage of growth inhibition (PGI)” value in data set [1] came to 67.6 ± 2.7%. In data set [1] (setting [2]), the IC50 turned out to be 11.2 ± 1.7 µM.
For the compound `Cc1ccc2oc(=O)cc(CN3CCNCC3)c2c1` [10j], the melting point is greater than 300 °C. In data set [1], the IC50 result was “Inactive” and the “GI (%) / percentage of growth inhibition (PGI)” value is recorded as “Inactive”.
For `CCc1ccc2oc(=O)cc(CN3CCOCC3)c2c1` [11k], the melting point was in the range of 110 to 113 °C. For the same compound, the “GI (%) / percentage of growth inhibition (PGI)” value in data set [1] is reported as 57.6 ± 3.4%. For the same compound, the IC50 in data set [1] (setting [2]) stood at 22.7 ± 3.1 µM.
`Cc1ccc2oc(=O)cc(CNc3ccccc3)c2c1` [10a] came in with a melting point of 164 to 165 °C. Also, the “GI (%) / percentage of growth inhibition (PGI)” value in data set [1] is listed as 38.5 ± 2.6%. Also, the IC50 in data set [1] (setting [2]) was greater than 100 µM.
With `CCc1ccc2oc(=O)cc(CNc3ccc(OC)cc3)c2c1` [11e], the melting point lay within 151 to 152 °C. The “GI (%) / percentage of growth inhibition (PGI)” value in data set [1] is less than 52.5%. Also, the IC50 in data set [1] (setting [2]) is greater than 25 µM.
For `Cc1ccc2oc(=O)cc(CN3CCC(c4ccccc4)CC3)c2c1` [10n], in that order: 106 to 107 °C, less than 62.7% and 13.2 ± 2.6 µM.
`O=c1cc(CN2CCS(=O)(=O)CC2)c2cc(Cl)ccc2o1` [9m] displayed a melting point of 162 to 164 °C. For the same compound, the “GI (%) / percentage of growth inhibition (PGI)” value in data set [1] is listed as less than 59.9%. The IC50 in data set [1] (setting [2]) is greater than 25 µM.
On to `O=c1cc(CN2CCSCC2)c2cc(Cl)ccc2o1` [9l], for which the melting point lay in the range of 152 to 153 °C. The “GI (%) / percentage of growth inhibition (PGI)” value in data set [1] stood at 29 ± 0.4%. Besides, the IC50 in data set [1] (setting [2]) is greater than 100 µM.
`COc1ccc(NCc2cc(=O)oc3ccc(Cl)cc23)cc1` [9e]: the melting point was in the range of 192 to 194 °C. For the same compound, the “GI (%) / percentage of growth inhibition (PGI)” value in data set [1] is less than 29.3%. In addition, in data set [1] (setting [2]), the half-inhibitory concentration (IC50) was greater than 100 µM.
For `CC1CS(=O)(=O)CCN1/N=C/c1ccc([N+](=O)[O-])o1` (centres unmarked) [Nifurtimox, reference compound], in data set [1] (setting [2]), the IC50 came out at 5 ± 1 µM.
For `CN(Cc1cc(=O)oc2ccc(Cl)cc12)c1ccc(Cl)cc1` [9h], the melting point was 185 to 186 °C. Further, the “GI (%) / percentage of growth inhibition (PGI)” value in data set [1] is given as less than 48.4%. Further, the IC50 in data set [1] (setting [2]) was greater than 25 µM.
In turn, `Cc1ccc2oc(=O)cc(CN3CCOCC3)c2c1` [10k] had a melting point of 99 to 100 °C. For the same compound, in data set [1], the IC50 entry is reported as “Inactive” and the “GI (%) / percentage of growth inhibition (PGI)” value is recorded as “Inactive”.
Turning to `Cc1ccc2oc(=O)cc(CN3CCSCC3)c2c1` [10l], the melting point was in the range of 121 to 122 °C. In data set [1], the IC50 result is on record as “Inactive” and the “GI (%) / percentage of growth inhibition (PGI)” value is “Inactive”.
As to `O=c1cc(CN2CCC(c3ccccc3)CC2)c2cc(Cl)ccc2o1` [9n], the melting point fell in the range of 163 to 164 °C. Further, in data set [1], the “GI (%) / percentage of growth inhibition (PGI)” value is on record as less than 51.5%. Further, in data set [1] (setting [2]), the IC50 is greater than 25 µM.
In turn, `CCc1ccc2oc(=O)cc(CNc3cc(C)cc(C)c3)c2c1` [11f] returned a melting point of 176 to 178 °C. Moreover, the “GI (%) / percentage of growth inhibition (PGI)” value in data set [1] is listed as less than 44.3%. In data set [1] (setting [2]), the IC50 was greater than 25 µM.
`CCc1ccc2oc(=O)cc(CN3CCNCC3)c2c1` [11j]: the melting point is greater than 300 °C. In data set [1], the IC50 result is listed as “Inactive” and the “GI (%) / percentage of growth inhibition (PGI)” value was “Inactive”.
As to `Cc1cc(C)cc(NCc2cc(=O)oc3ccc(Cl)cc23)c1` [9f], the melting point was 192 to 194 °C. Moreover, the “GI (%) / percentage of growth inhibition (PGI)” value in data set [1] came out at 6.1 ± 1.3%. In data set [1] (setting [2]), the IC50 was greater than 100 µM.
Turning to `Cc1ccc2oc(=O)cc(CNc3ccc(Cl)cc3)c2c1` [10c], the melting point lay within 180 to 181 °C. Moreover, in data set [1], the “GI (%) / percentage of growth inhibition (PGI)” value worked out at 18.5 ± 1.8%. Also, the IC50 in data set [1] (setting [2]) is greater than 100 µM.
For the compound `O=c1cc(CNc2ccccc2)c2cc(Cl)ccc2o1` [9a], the melting point is 187 to 188 °C. Besides, the IC50 in data set [1] (read-out: IC50) is less than 10 µM. In data set [1] (setting [2]), the IC50 was determined as 9.1 ± 1.6 µM.
In turn, `CCc1ccc2oc(=O)cc(CNc3ccc(Br)cc3)c2c1` [11d] had a melting point of 184 to 186 °C. In data set [1], the “GI (%) / percentage of growth inhibition (PGI)” value is given as less than 21.9%. In data set [1] (setting [2]), the IC50 was 35.4 ± 2.1 µM.
As to `Cc1ccc(NCc2cc(=O)oc3ccc(C)cc23)cc1` [10b], the melting point was 188 to 189 °C. Besides, the “GI (%) / percentage of growth inhibition (PGI)” value in data set [1] was found to be 29.9 ± 0.9%. Besides, in data set [1] (setting [2]), the IC50 is greater than 100 µM.
`Cc1ccc2oc(=O)cc(CN3CCCCC3)c2c1` [10i]: in data set [1], the “GI (%) / percentage of growth inhibition (PGI)” value is less than 15.9%. In addition, the IC50 in data set [1] (setting [2]) is greater than 100 µM.
Turning to `Cc1cc(C)cc(NCc2cc(=O)oc3ccc(C)cc23)c1` [10f], the melting point was in the range of 179 to 180 °C. Further, in data set [1], the “GI (%) / percentage of growth inhibition (PGI)” value is 32.5 ± 0.9%. In addition, in data set [1] (setting [2]), the IC50 was greater than 100 µM.
`CCc1ccc2oc(=O)cc(CN3CCC(c4ccccc4)CC3)c2c1` [11n] returned a melting point of 118 to 120 °C. Besides, in data set [1], the “GI (%) / percentage of growth inhibition (PGI)” value came to 26.7 ± 4.0%. Moreover, the IC50 in data set [1] (setting [2]) came to 30.3 ± 0.9 µM.
The compound `Cc1ccc2oc(=O)cc(CNc3ccc(Br)cc3)c2c1` [10d] came in with a melting point of 178 to 179 °C. Further, the “GI (%) / percentage of growth inhibition (PGI)” value in data set [1] is on record as less than 33.1%. The IC50 in data set [1] (setting [2]) was greater than 100 µM.
In the case of `O=c1cc(CNc2ccc(Br)cc2)c2cc(Cl)ccc2o1` [9d], the melting point lay within 231 to 232 °C. Further, the “GI (%) / percentage of growth inhibition (PGI)” value in data set [1] is on record as 1.9 ± 0.8%. Besides, the IC50 in data set [1] (setting [2]) was greater than 100 µM.
Compound `CCc1ccc2oc(=O)cc(CN3CCSCC3)c2c1` [11l] came in with a melting point of 134 to 135 °C. For the same compound, in data set [1], the “GI (%) / percentage of growth inhibition (PGI)” value amounted to 72.9 ± 0.4%. The IC50 in data set [1] (setting [2]) was greater than 10 µM.
As for `O=c1cc(CN2CCOCC2)c2cc(Cl)ccc2o1` [9k], the melting point lay in the range of 177 to 178 °C. Further, the “GI (%) / percentage of growth inhibition (PGI)” value in data set [1] is on record as less than 9.6%. Besides, the IC50 in data set [1] (setting [2]) was greater than 100 µM.

A word on the IC50: it is the concentration at which inhibition is half-maximal. A word on the melting point: it is the temperature of the solid-liquid transition.
